pIC50, pKi: −log10 of the molar value.

Assay [1] deals with Chlamydomonas strain CMr04. Put plainly: Growth inhibition of Chlamydomonas strains (tolerance). It counts as cell-based, Chlamydomonas reinhardtii. The following applies: read-out: IC50 of growth inhibition. The procedure:
(§1) Algae cells of Chlamydomonas reinhardtii strains CC-503 and CC-1691 (Duke University, Durham, USA) are propagated in TAP medium (Gorman and Levine (1965) PNAS 54: 1665-1669) by constant shaking at 100 rpm, 22° C. and 30 μmol Phot*m^−2*[…] light illumination. Scenedesmus obliquus (University of Gottingen, Germany) are propagated in algae medium as described (Boger and Sandmann, (1993) In: Target assays for modern herbicides and related phytotoxic compounds, Lewis Publishers) under same culturing conditions as mentioned for Chlamydomonas. Compound screening is performed at 450 μmol Phot*m^−2*[…] illumination.
(§2) Sensitive strains of Chlamydomonas reinhardtii or Scenedesmus obliquus (Tables 14, 15) are mutated with 0.14 […] (EMS) for 1 h as described by Loppes (1969, Mol Gen Genet. 104: 172-177) Tolerant strains are identified by screening of mutagenized cells on solid nutrient solution plates containing “coumarone-derivative herbicides” or other HPPD inhibiting herbicides at wildype-lethal concentrations. Examples of the data obtained are depicted in Table 16 and FIG. 2.

In assay [2] the test system is Chlamydomonas strain CMr10. Described as above. The following applies: read-out: IC50 of growth inhibition. It counts as cell-based, Chlamydomonas reinhardtii. The procedure: as §1, §2
For assay [3], the system named is Chlamydomonas strain CMr05. The assay is described as above. In kind it is cell-based, Chlamydomonas reinhardtii. Conditions: read-out: IC50 of growth inhibition. How it is done: as §1, §2
For assay [4], the system named is Chlamydomonas strain CMr06. The description is as above. It counts as cell-based, Chlamydomonas reinhardtii. The following applies: read-out: IC50 of growth inhibition. How it is done: as §1, §2
In assay [5] the test system is Chlamydomonas strain CMr13. Described as above. In kind it is cell-based, Chlamydomonas reinhardtii. The following applies: read-out: IC50 of growth inhibition. The procedure: as §1, §2
Assay [6] concerns Chlamydomonas strain CMr15. The description is as above. It counts as cell-based, Chlamydomonas reinhardtii. Conditions: read-out: IC50 of growth inhibition. How it is done:
as §1, §2

Assay [7] has as its system Chlamydomonas strain CC1961 wild-type. The assay is described as above. It counts as cell-based, Chlamydomonas reinhardtii. The following applies: read-out: IC50 of growth inhibition. The procedure: as §1, §2
Assay [8] concerns the target T1, Arabidopsis HPPD variant Q293H (Arabidopsis thaliana, UniProt P93836, Q293H).
T1 construct: His6 (N); made in house; host or cells: E. coli BL21 (DE3)
In words: HPPD activity assay, mutant enzyme. It counts as biochemical. How it is done:
(§3) HPPD produces homogentisic acid and CO2 from 4-hydroxyphenylpyruvate (4-HPP) and O2. The activity assay for HPPD is based on the analysis of homogentisic acid by reversed phase HPLC.
(§4) The assay mixture can contain 150 mM potassium phosphate buffer pH 7.0, 50 mM L-ascorbic acid, 1 μM FeSO4 and 7 μg of purified enzyme in a total volume of 1 ml.
(§5) Inhibitors are dissolved in DMSO (dimethylsulfoxide) to a concentration of 20 mM or 0.5 mM, respectively. From this stock solution serial five-fold dilutions are prepared in DMSO, which are used in the assay. The respective inhibitor solution accounts for 1% of the assay volume. Thus, final inhibitor concentrations range from 200 μM to 2.5 nM or from 5 μM to 63 pM, respectively.
(§6) After a preincubation of 30 min the reaction is started by adding 4-HPP to a final concentration of 0.1 mM. The reaction is allowed to proceed for 120 min at room temperature. The reaction is stopped by addition of 100 μl of 4.5 M phosphoric acid.
(§7) The sample is extracted on an Oasis® HLB cartridge 3 cc/60 mg (Waters) that was preequilibrated with 63 mM phosphoric acid. L-ascorbic acid is washed out with 3 ml of 63 mM phosphoric acid. Homogentisate is eluted with 1 ml of a 1:1 mixture of 63 mM phosphoric acid and methanol (w/w).
(§8) 10 μl of the eluate is analyzed by reversed phase HPLC on a Symmetry® C18 column (particle size 3.5 μm, dimensions 4.6×100 mm; Waters) using 5 mM H3PO4/15% ethanol (w/w) as an eluent.
(§9) Homogentisic acid is detected electrochemically and quantified by measuring peak areas (Empower software; Waters).
(§10) Activities are normalized by setting the uninhibited enzyme activity to 100%. IC50 values are calculated using non-linear regression.
(§11) The assay mixture can contain 150 mM potassium phosphate buffer pH 7.0, 50 mM L-ascorbic acid, 100 μM Catalase (Sigma-Aldrich), 1 μM FeSO4 and 0.2 units of purified HPPD enzyme in a total volume of 505 μl. 1 unit is defined as the amount of enzyme that is required to produce 1 nmol of HGA per minute at 20° C.
(§12) After a preincubation of 30 min the reaction is started by adding 4-HPP to a final concentration of 0.05 mM. The reaction is allowed to proceed for 45 min at room temperature. The reaction is stopped by the addition of 50 μl of 4.5 M phosphoric acid. The sample is filtered using a […] pore size PVDF filtration device.
(§13) 5 μl of the cleared sample is analyzed on an Atlantis T3 column (particle size 3 μm, dimensions 3×50 mm; Waters) by isocratic elution using 90% 10 mM NaH2PO4 pH 2.2, 10% methanol (v/v).
(§14) HGA is detected electrochemically at 750 mV (mode: DC; polarity: positive) and quantified by integrating peak areas (Empower software; Waters).
(§15) Inhibitors are dissolved in DMSO (dimethylsulfoxide) to a concentration of 0.5 mM. From this stock solution serial five-fold dilutions are prepared in DMSO, which are used in the assay. The respective inhibitor solution accounts for 1% of the assay volume. Thus, final inhibitor concentrations range from 5 μM to 320 pM, respectively. Activities are normalized by setting the uninhibited enzyme activity to 100%. IC50 values are calculated using non-linear regression.
(§16) Purified, mutant HPPD enzymes are obtained by the methods described above. Dose response and kinetic measurements are carried out using the described HPPD activity assay. Apparent michaelis constants (Km) and maximal reaction velocities (Vmax) are calculated by non-linear regression with the software GraphPad Prism 5 (GraphPad Software, La Jolla, USA) using a substrate inhibition model. Apparent kcat values are calculated from Vmax assuming 100% purity of the enzyme preparation. Weighted means (by standard error) of Km and IC50 values are calculated from at least three independent experiments. The Cheng-Prusoff equation for competitive inhibition (Cheng, Y. C.; Prusoff, W. H. Biochem Pharmacol 1973, 22, 3099-3108) is used to calculate dissociation constants (Ki). Examples of the data obtained are depicted in Table 13.

In assay [9] the target is T2, Arabidopsis HPPD variant Q293N (Arabidopsis thaliana, UniProt P93836, Q293N).
T2 construct: His6 (N); made in house; host or cells: E. coli BL21 (DE3)
T2 sequence (P93836 whole entry Q293N): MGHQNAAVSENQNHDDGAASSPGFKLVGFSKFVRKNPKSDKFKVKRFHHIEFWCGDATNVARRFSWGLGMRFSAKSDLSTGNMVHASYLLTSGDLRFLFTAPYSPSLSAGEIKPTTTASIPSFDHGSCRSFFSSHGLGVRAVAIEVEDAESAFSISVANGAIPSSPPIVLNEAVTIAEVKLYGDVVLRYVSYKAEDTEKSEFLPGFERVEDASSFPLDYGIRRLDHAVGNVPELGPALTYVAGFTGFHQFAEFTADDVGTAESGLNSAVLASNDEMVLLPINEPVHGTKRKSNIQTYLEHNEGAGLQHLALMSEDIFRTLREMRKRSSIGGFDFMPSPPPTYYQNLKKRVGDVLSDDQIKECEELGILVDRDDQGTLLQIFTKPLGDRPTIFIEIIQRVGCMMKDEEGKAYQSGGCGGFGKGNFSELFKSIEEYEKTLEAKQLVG
In words: HPPD activity assay, mutant enzyme. In kind it is biochemical. How it is done:
as §3, §4, §5, §6, §7, §8, §9, §10, §11, §12, §13, §14, §15, §16

T1 sequence (P93836 whole entry Q293H): as the sequence (P93836 whole entry Q293N) above, with N293H counted along it

Regarding `CC1=NOC(c2c(Cl)ccc(C3=C(O)c4ncccc4N(CC(F)F)S3(=O)=O)c2Cl)C1` (stereo not drawn) [Inhibitor 1, 3-[2,4-dichloro-3-(3-methyl-4,5-dihydroisoxazol-5-yl)phenyl]-1-(2,2-difluoroethyl)-2,2-dioxo-pyrido[3,2-c]thiazin-4-ol], the negative logarithm of the IC50 (pIC50) in assay [1] was less than 3.00; in assay [2], less than 3.00; in assay [3], less than 3.00; in [4] it was less than 3.00; in [5] it was 3.09; in assay [6], less than 3.00. For the same molecule, the negative logarithm of the IC50 (pIC50) in assay [7] is 3.21. In addition, the values for the negative-log Ki (pKi) in assay [8] and in assay [9] were 7.64 and 7.39, respectively.
In the case of `Cc1c(C(=O)c2cnn(C)c2O)ccc(S(C)(=O)=O)c1C1=NOCC1` [Topramezone, reference compound], the negative-log IC50 (pIC50) is 3.41 in assay [1]; 3.04 in assay [2]; 3.15 in [3]; 3.07 in assay [4]; 3.70 in assay [5]; 3.64 in [6]. Also, in [7], the negative logarithm of the IC50 (pIC50) was 3.85. In addition, the negative logarithm of the Ki (pKi) was 7.85 in [8] and 7.44 in assay [9].

By pIC50 is commonly meant the IC50 on a negative log10 scale, so that one unit is a factor of ten. Broadly, the pKi is the negative decadic logarithm of the Ki, by convention in mol/L. Low values mean a large Ki, high ones a small Ki.
